Measurements: the METLIN SMRT retention time set (Domingo-Almenara et al. 2019)

Assay: gradient 5% acetonitrile 3 min, to 50% in 2 min, to 85% in 15 min, held 3 min, 100 µL/min
Details: column: Zorbax Extend-C18 2.1 x 50 mm; eluents: water / acetonitrile, 0.1% formic acid
How it was run: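 The mobile phases were water and acetonitrile, each with 0.1% formic acid, pumped at 100 μL/min through a Zorbax Extend-C18 column (2.1 × 50 mm, 1.8 μm). Pure standards were injected as mixtures of ~100 molecules and detected by a quadrupole time-of-flight mass spectrometer in positive and negative ionization mode. Retention time came from computationally picked adduct peaks, each inspected by hand.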

Cc1ccc(S(=O)(=O)N2CCC3(CC2)NCCN=C3NCc2ccccc2C)c(C)c1
RP-LC retention time: 788 s

Cc1ccccc1-c1noc(CN2N=NC3C(=O)N(c4ccc(C(C)C)cc4)C(=O)C32)n1 (stereo not drawn)
RP-LC retention time: 1150 s

Fc1ccccc1-c1noc(-c2nc(-c3ccncc3)no2)n1
RP-LC retention time: 951 s

CCCC1c2nccn2CCCN1C(=O)CCc1c(C)noc1C (stereo not drawn)
RP-LC retention time: 595 s

Cn1nc(-c2nnc(-c3ccccc3F)o2)c2c1CCN(S(=O)(=O)c1ccc(Cl)s1)C2
RP-LC retention time: 1010 s

CCOC(=O)c1ccccc1NC(=O)Cn1c(=O)c(CCC(=O)NC2CCCC2)nc2ccccc21
RP-LC retention time: 1130 s

COc1ccccc1N1CCN(Cc2nc(-c3ccc(N4CCCCC4)nc3)no2)CC1
RP-LC retention time: 757 s

O=C(C1CCN(c2nnc3ccc(Cl)cn23)CC1)N1CCOCC1
RP-LC retention time: 599 s

COc1ccc(-c2nc(-c3ccc4oc(C)nc4c3)no2)cn1
RP-LC retention time: 1060 s

Cc1cc(O)c(C(C[N+](=O)[O-])c2ccc(Cl)cc2Cl)c(=O)o1 (stereo not drawn)
RP-LC retention time: 803 s

Cc1nc(C)c(-c2nnc(NC(=O)c3ccno3)o2)s1
RP-LC retention time: 603 s

O=C1CCC(NC(=O)c2ccccc2)C(=O)N1 (stereo not drawn)
RP-LC retention time: 650 s

O=C(C1CCN(c2nccnc2Sc2ccccc2)CC1)N1CCN(c2ccccn2)CC1
RP-LC retention time: 682 s

O=C(NCc1cc(F)cc(F)c1)C1CCN(c2cc(N3CCSCC3)ncn2)CC1
RP-LC retention time: 679 s

CCN1CCCCc2cc(C(=O)NCCN3CCCCC3C)sc21 (stereo not drawn)
RP-LC retention time: 698 s

Cc1cc(C)c(C)c(S(=O)(=O)N2CCC(OCc3noc(C4CCCO4)n3)CC2)c1C (stereo not drawn)
RP-LC retention time: 1110 s

O=C(Cn1ccc2c(SCc3ccccc3)nccc21)N1CCN(c2ccccn2)CC1
RP-LC retention time: 577 s

Cc1ccc(CNC(=O)C2(C)Oc3cccnc3N(C)C2=O)o1 (stereo not drawn)
RP-LC retention time: 740 s

O=C(Nc1ccc(F)c(Cl)c1)C1CCc2nc(N3CCOCC3)ncc2C1 (stereo not drawn)
RP-LC retention time: 855 s

CCc1noc(-c2ccnc(-n3cnc(C(=O)NC4CCCC4)c3)c2)n1
RP-LC retention time: 839 s

CC(=O)c1ccc(NC(=O)C2Oc3ccccc3NC2=O)cc1 (stereo not drawn)
RP-LC retention time: 683 s

Cc1c(Cl)cccc1Nc1c(-c2ccc(N3CCOCC3)cc2)nc2cnccn12
RP-LC retention time: 916 s

CCC(=O)N1CCC(C2CCN(S(=O)(=O)c3ccccc3)CC2)C1 (stereo not drawn)
RP-LC retention time: 788 s

COc1ccccc1C(=O)N1CCc2cn(C)c3cccc(c23)C1
RP-LC retention time: 920 s

Cc1ccc(Nc2ncccc2S(N)(=O)=O)cc1C
RP-LC retention time: 852 s

Cc1cccc(NC(=O)c2nc3ccccc3[nH]c2=O)c1
RP-LC retention time: 771 s

CCCn1cc(CCNC(=O)c2cc(C)ccc2C)c2cccnc21
RP-LC retention time: 827 s

COCCCNC(=O)C1CCN(C2=NS(=O)(=O)C(c3ccc(Cl)cc3)=C2C)CC1
RP-LC retention time: 748 s

O=C(Nc1nc(CC(=O)N2CCN(c3ccccc3O)CC2)cs1)c1cnccn1
RP-LC retention time: 612 s

CC1(C(=O)NCc2ccccc2)CCCN(C(=O)Nc2cccc(Br)c2)C1 (stereo not drawn)
RP-LC retention time: 983 s

Cc1noc(C)c1S(=O)(=O)NCC(c1cccnc1)c1cn(C)c2ccccc12 (stereo not drawn)
RP-LC retention time: 700 s

CCCC(NC(=O)c1cccc(C)c1)C(=O)Nc1nc2ccccc2[nH]1 (stereo not drawn)
RP-LC retention time: 715 s

Cc1cccc(CNC(=O)C2CCN(c3nnc4c(Cl)cccn34)CC2)c1C
RP-LC retention time: 757 s

CCN1c2cc(F)ccc2C(=O)NC12CCN(C(=O)c1ccc(OC)cc1OC)CC2
RP-LC retention time: 781 s

CCOCCOC1CCN(C(=O)c2cccs2)CC1
RP-LC retention time: 725 s

CC1(C(=O)NCc2ccc(F)cc2)CCCN(S(=O)(=O)c2ccc(F)cc2F)C1 (stereo not drawn)
RP-LC retention time: 963 s

O=C(Cn1cccc(-c2nc(-c3ccc(F)cc3)no2)c1=O)Nc1ccc(F)c(Cl)c1
RP-LC retention time: 960 s

COc1ccc(C)cc1NS(=O)(=O)c1ccc2c(c1)CCCC(=O)N2
RP-LC retention time: 709 s

O=C(CSCc1ccccc1)Nc1ccc(CC(=O)NC2CC2)cc1
RP-LC retention time: 705 s

CCn1cc(-c2nc(C(=O)Nc3ccc(C(=O)OC)cc3)cs2)c2cccnc21
RP-LC retention time: 1080 s

O=C([C@@H]1C[C@H](Oc2ccccc2)CN1C(=O)COc1ccccc1)N1CCCC1
RP-LC retention time: 828 s

COCCCNC(=O)c1ccc(-c2nc(CN3CCc4ccccc43)c(C)o2)cc1
RP-LC retention time: 951 s

Cc1ccc(Nc2c(-c3ccc(C(=O)O)cc3)nc3cnccn23)c(Br)c1
RP-LC retention time: 1080 s

COc1ccc(N2CCN(C(=O)Cn3ccc4c(c(C)nn4-c4ccccc4)c3=O)CC2)cc1
RP-LC retention time: 736 s

O=C(COc1ccc(Cl)cc1Cl)N1CCN(c2ccc3nncn3n2)CC1
RP-LC retention time: 687 s

CCOc1ccc(-c2noc(Cc3nc(-c4ccccc4Cl)cs3)n2)cc1
RP-LC retention time: 1340 s

CCOc1nc2c(c(C)nn2-c2cccc(C)c2)c(C)c1CCC(=O)N1CCN(c2ccccn2)CC1
RP-LC retention time: 910 s

Cc1ccc2c(c1)C(O)(CC(=O)c1ccc(NC(=O)C3CCCCC3)cc1)C(=O)N2 (stereo not drawn)
RP-LC retention time: 766 s

Cn1cc(C(=O)NC2CCN(Cc3ccccc3)CC2)c2cccnc21
RP-LC retention time: 594 s

Fc1ccc(-c2noc(-c3ccc(N4CCCC4)nc3)n2)cc1
RP-LC retention time: 1040 s

Cc1ccc(S(=O)(=O)N2CCCC2c2nc(-c3cccc(Cl)c3)no2)cc1C (stereo not drawn)
RP-LC retention time: 1270 s

COc1ccc(CCc2nc3nccc(-c4ccsc4)n3n2)cc1
RP-LC retention time: 946 s

COCc1nc2cccnc2n1C1CCN(C(=O)Nc2cc(OC)c(OC)c(OC)c2)CC1
RP-LC retention time: 659 s

Cc1cc(C)c(C)c(S(=O)(=O)N2CCCC2c2nc(-c3cccc(F)c3)no2)c1C (stereo not drawn)
RP-LC retention time: 1360 s

COc1ccc(S(=O)(=O)N2CCCC(C(=O)Nc3cccc(Br)c3)C2)cc1Cl (stereo not drawn)
RP-LC retention time: 1110 s

COc1ccc(OC)c(CNC(=O)CCC(=O)N2CCCn3nc(-c4cccn4C)cc32)c1
RP-LC retention time: 755 s

COc1ccc(C2C(C(=O)NC(C)C)c3ccccc3C(=O)N2C)cc1 (stereo not drawn)
RP-LC retention time: 730 s

CCOC(=O)c1cc(C2CC2)nc2c1c(=O)n(Cc1cccc(Br)c1)c(=O)n2C
RP-LC retention time: 1280 s

O=C(c1ccc(OCC2CCN(C(=O)c3cccs3)CC2)cc1)N1CCOCC1
RP-LC retention time: 747 s

Cc1ccc(NC(=O)Cn2c(=O)n(-c3ccc(F)cc3)c(=O)c3c2cc(C)n3C)c(C)c1
RP-LC retention time: 879 s

Cc1ccc(C)c(Sc2ccc(N3CCC(C(=O)NCC(C)c4ccccc4)CC3)nn2)c1 (stereo not drawn)
RP-LC retention time: 938 s

Cc1ccc(C)c(N2CCN(C(=O)C3CCN(S(=O)(=O)c4cn(C)cn4)CC3)CC2)c1
RP-LC retention time: 832 s

CCN1C(=O)COc2ccc(-c3noc(C4CC(=O)N(c5ccc(C)cc5)C4)n3)cc21 (stereo not drawn)
RP-LC retention time: 878 s

Cc1ccc(NC(=O)C2CCN(S(=O)(=O)c3ccc4c(c3)sc(=O)n4C(C)C)CC2)cc1C
RP-LC retention time: 953 s

CCOC(=O)c1[nH]c(C)c(CN(CC2CCCO2)C(=O)c2ccc(OC)cc2)c1C (stereo not drawn)
RP-LC retention time: 852 s

Cc1cc(=O)c(OCc2ccccc2F)cn1CC(=O)NCc1ccco1
RP-LC retention time: 593 s

CN(C)c1nc2ncn3c(=O)n(CC(=O)NCc4ccc(F)cc4)nc3c2s1
RP-LC retention time: 675 s

CCOc1ccc(C(=O)N2CCN(c3nc(CN4CCOCC4)cs3)CC2)cc1
RP-LC retention time: 615 s

CC(=O)N1c2ccc(S(=O)(=O)N3CCCC3)cc2CC1C(=O)NCCCN1CCCCC1 (stereo not drawn)
RP-LC retention time: 626 s

O=C(C1=CN(c2cccc(F)c2)c2cc(Cl)ccc2S1(=O)=O)N1CCOCC1
RP-LC retention time: 825 s

COc1ccc2c(c1)C1(CCN(S(=O)(=O)c3ccc4c(c3)CC(=O)N4C)C1)C(=O)N2C (stereo not drawn)
RP-LC retention time: 744 s

O=C(Cn1c(=O)c(CCC(=O)NC2CCCC2)nc2ccccc21)Nc1ccc(F)c(Cl)c1
RP-LC retention time: 672 s

Cc1ccc(NC(=O)C2CCN(S(=O)(=O)c3ccc4c(c3)CCCC(=O)N4)CC2)cc1
RP-LC retention time: 948 s

Cc1ccccc1Cn1cc(-c2ccncc2)cc1C(=O)NCc1cccs1
RP-LC retention time: 741 s

COCCNC(=O)CN1c2ccccc2NC2=C(C(=O)CC(C)(C)C2)C1c1ccccc1OC (stereo not drawn)
RP-LC retention time: 756 s

c1ccc([C@@H]2CN(Cc3ccncc3)C[C@H]2COc2cccnc2)nc1
RP-LC retention time: 516 s

COc1ccc(C(=O)N2CCN(c3ccc(-c4nc(C)cs4)cn3)CC2)cc1
RP-LC retention time: 805 s

Cc1noc(CN2CCN(C3CCN(Cc4cc(F)ccc4F)C3)C2=O)n1 (stereo not drawn)
RP-LC retention time: 576 s

CCCn1c(C2CCN(S(=O)(=O)c3ccccc3)C2)nc2cccnc21 (stereo not drawn)
RP-LC retention time: 783 s

CCCC(=O)Nc1nc(-c2ccc3c(c2)N(C)C(=O)C(C)O3)cs1 (stereo not drawn)
RP-LC retention time: 831 s

CCCNC(=O)C1CCCN(c2ccc(SCC(=O)Nc3cccc(Br)c3)nn2)C1 (stereo not drawn)
RP-LC retention time: 730 s

CCCNC(=O)N(C1CCOCC1)C1CCN(C(=O)CCc2c[nH]c3ccccc23)CC1
RP-LC retention time: 730 s

O=C(CCC(=O)N1CC2CCCN2c2ccccc21)NCc1ccccn1 (stereo not drawn)
RP-LC retention time: 639 s

Cn1cc(-c2ccccc2)cc1C(=O)N1CCN(C2CCCCC2)CC1
RP-LC retention time: 701 s

CCCNC(=O)C1CCN(c2ccc(SCC(=O)Nc3ccc(C)c(F)c3)nn2)CC1
RP-LC retention time: 679 s

CCCCNC(=O)C1CCCN(c2cc(=O)n(C)c(=O)n2C)C1 (stereo not drawn)
RP-LC retention time: 641 s

CC(C)CC(=O)N[C@H](Cc1ccccc1)C(=O)NCc1cscn1
RP-LC retention time: 699 s

COc1ccc(OCC(=O)Nc2ccc3c(c2)N(C(C)=O)CCC3)cc1
RP-LC retention time: 782 s
